In patent US9115147B2, “Tricyclic derivatives and their pharmaceutical use and compositions” (Cephalon, Inc., priority 2009, dated 2015):

biological target: T1, human 5-HT6 receptor (Homo sapiens, UniProt P50406); assay: Human 5-HT6 Receptor Binding Assay ([3H]LSD, scintillation beads); details: actual data; membranes of CHO-K1 cells with recombinant human 5-HT6 receptor, 4 nM [3H]LSD; read-out: Human 5-HT6 Ki
T1 construct: host or cells: CHO-K1 cells, stably transfected; membranes prepared in house
T1 sequence (P50406 whole entry): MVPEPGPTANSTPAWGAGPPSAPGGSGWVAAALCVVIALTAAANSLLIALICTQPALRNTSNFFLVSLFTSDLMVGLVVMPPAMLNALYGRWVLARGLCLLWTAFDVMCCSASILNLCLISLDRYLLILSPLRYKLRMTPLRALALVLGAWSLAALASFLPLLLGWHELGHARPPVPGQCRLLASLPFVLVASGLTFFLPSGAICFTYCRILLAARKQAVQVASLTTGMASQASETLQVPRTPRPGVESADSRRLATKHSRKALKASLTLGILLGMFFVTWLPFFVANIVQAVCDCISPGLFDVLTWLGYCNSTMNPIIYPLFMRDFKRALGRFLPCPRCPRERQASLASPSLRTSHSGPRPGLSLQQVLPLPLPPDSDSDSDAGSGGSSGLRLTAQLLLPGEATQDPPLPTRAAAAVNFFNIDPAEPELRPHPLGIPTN
Procedure, shortened: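 Membranes from CHO-K1 cells stably expressing human 5-HT6, 1.75 μg protein/well with scintillation beads, in 50 mM Tris pH 7.4, 4 mM CaCl2, saponin, ascorbic acid. Nonspecific binding with 10 μM serotonin. IC50 from variable-slope fit; Ki by Cheng-Prusoff.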

Row | SMILES | Ki
1 | O=S(=O)(c1ccccc1)c1ccc2c(c1)OCC1C2CCN1CCO (single isomer, unassigned) [Example 97, 2-[7-(phenylsulfonyl)-1,3a,4,9b-tetrahydrochromeno[3,4-b]pyrrol-3(2H)-yl]ethanol] | 0.221 µM

same assay, conditions: membranes of CHO-K1 cells with recombinant human 5-HT6 receptor, 4 nM [3H]LSD, Cheng-Prusoff; read-out: Human 5-HT6 Ki app

Row | SMILES | Ki
2 | O=S(=O)(c1cncc(Cl)c1)c1ccc2c(c1)OCC1C2CCN1C1CCC1 (single isomer, unassigned) [Example 81, 7-[(5-chloropyridin-3-yl)sulfonyl]-3-cyclobutyl-1,2,3,3a,4,9b-hexahydrochromeno[3,4-b]pyrrole] | > 1 µM
3 | Cc1cccc(Sc2ccc3c(c2)OCC2C3CCN2C2CCC2)n1 (single isomer, unassigned) [Example 82, 3-cyclobutyl-7-[(6-methylpyridin-2-yl)sulfanyl]-1,2,3,3a,4,9b-hexahydrochromeno[3,4-b]pyrrole] | > 1 µM
4 | Cc1cccc([S+]([O-])c2ccc3c(c2)OCC2C3CCN2C2CCC2)n1 (single isomer, unassigned) [Example 83, 3-cyclobutyl-7-[(6-methylpyridin-2-yl)sulfinyl]-1,2,3,3a,4,9b-hexahydrochromeno[3,4-b]pyrrole] | > 1 µM
5 | Cc1cccc(S(=O)(=O)c2ccc3c(c2)OCC2C3CCN2C2CCC2)n1 (single isomer, unassigned) [Example 84, 3-cyclobutyl-7-[(6-methylpyridin-2-yl)sulfonyl]-1,2,3,3a,4,9b-hexahydrochromeno[3,4-b]pyrrole] | > 1 µM
6 | Cc1cccc(S(=O)(=O)c2ccc3c(c2)OCC2C3CCN2C2CCC2)n1 (single isomer, unassigned) [Example 85, 3-cyclobutyl-7-[(6-methylpyridin-2-yl)sulfonyl]-1,2,3,3a,4,9b-hexahydrochromeno[3,4-b]pyrrole] | > 1 µM
7 | O=S(=O)(c1cncc(C(F)(F)F)c1)c1ccc2c(c1)OCC1C2CCN1C1CCC1 (single isomer, unassigned) [Example 86, 3-cyclobutyl-7-{[5-(trifluoromethyl)pyridin-3-yl]sulfonyl}-1,2,3,3a,4,9b-hexahydrochromeno[3,4-b]pyrrole] | > 1 µM
8 | O=S(=O)(c1cncc(C(F)(F)F)c1)c1ccc2c(c1)OCC1C2CCN1C1CCC1 (single isomer, unassigned) [Example 87, 3-cyclobutyl-7-{[5-(trifluoromethyl)pyridin-3-yl]sulfonyl}-1,2,3,3a,4,9b-hexahydrochromeno[3,4-b]pyrrole] | > 1 µM
9 | O=S(=O)(c1ccccc1)c1ccc2c(c1)C1CCN(C3CCC3)C1CO2 (single isomer, unassigned) [Example 88, 3-cyclobutyl-8-(phenylsulfonyl)-1,2,3,3a,4,9b-hexahydrochromeno[3,4-b]pyrrole] | < 0.5 µM
10 | O=S(=O)(c1ccccc1)c1ccc2c(c1)C1CCN(C3CCC3)C1CO2 (single isomer, unassigned) [Example 89, 3-cyclobutyl-8-(phenylsulfonyl)-1,2,3,3a,4,9b-hexahydrochromeno[3,4-b]pyrrole] | < 0.5 µM
11 | O=S(=O)(c1ccccc1)c1ccc2c(c1)OCC1C2CCN1CCO (single isomer, unassigned) [Example 90, 2-[7-(Phenylsulfonyl)-1,3a,4,9b-tetrahydrochromeno[3,4-b]pyrrol-3(2H)-yl]ethanol] | < 0.5 µM
12 | CC(C)CN1CCC2c3ccc(S(=O)(=O)c4ccccc4)cc3OCC21 (single isomer, unassigned) [Example 91, 3-(2-methylpropyl)-7-(phenylsulfonyl)-1,2,3,3a,4,9b-hexahydrochromeno[3,4-b]pyrrole] | < 0.5 µM
13 | COCCN1CCC2c3ccc(S(=O)(=O)c4ccccc4)cc3OCC21 (single isomer, unassigned) [Example 92, 3-(2-methoxyethyl)-7-(phenylsulfonyl)-1,2,3,3a,4,9b-hexahydrochromeno[3,4-b]pyrrole] | < 0.5 µM
14 | O=S(=O)(c1ccccc1)c1ccc2c(c1)OCC1C2CCN1CCCO (single isomer, unassigned) [Example 93, 3[7-(phenylsulfonyl)-1,3a,4,9b-tetrahydrochromeno[3,4-b]pyrrol-3(2H)-yl]propan-1-ol] | < 0.5 µM
15 | CC(C)CCCN1CCC2c3ccc(S(=O)(=O)c4ccccc4)cc3OCC21 (single isomer, unassigned) [Example 94, 3-(4-methylpentyl)-7-(phenylsulfonyl)-1,2,3,3a,4,9b-hexahydrochromeno[3,4-b]pyrrole] | < 0.5 µM
16 | O=S(=O)(c1ccccc1)c1ccc2c(c1)OCC1C2CCN1Cc1ccccc1 (single isomer, unassigned) [Example 95, 3-benzyl-7-(phenylsulfonyl)-1,2,3,3a,4,9b-hexahydrochromeno[3,4-b]pyrrole] | < 0.5 µM
17 | O=S(=O)(c1ccccc1)c1ccc2c(c1)OCC1C2CCN1CCc1ccccc1 (single isomer, unassigned) [Example 96, 3-(2-phenylethyl)-7-(phenylsulfonyl)-1,2,3,3a,4,9b-hexahydrochromeno[3,4-b]pyrrole] | < 0.5 µM
18 | O=S(=O)(c1ccccc1)c1ccc2c(c1)OCC1C2CCN1CCO (single isomer, unassigned) [Example 97, 2-[7-(phenylsulfonyl)-1,3a,4,9b-tetrahydrochromeno[3,4-b]pyrrol-3(2H)-yl]ethanol] | < 0.5 µM
19 | CC(C)CN1CCC2c3ccc(S(=O)(=O)c4ccccc4)cc3OCC21 (single isomer, unassigned) [Example 98, 3-(2-methylpropyl)-7-(phenylsulfonyl)-1,2,3,3a,4,9b-hexahydrochromeno[3,4-b]pyrrole] | > 1 µM
20 | COCCN1CCC2c3ccc(S(=O)(=O)c4ccccc4)cc3OCC21 (single isomer, unassigned) [Example 99, 3-(2-methoxyethyl)-7-(phenylsulfonyl)-1,2,3,3a,4,9b-hexahydrochromeno[3,4-b]pyrrole] | > 1 µM
21 | O=S(=O)(c1ccccc1)c1ccc2c(c1)OCC1C2CCN1CCCO (single isomer, unassigned) [Example 100, 3-[7-(phenylsulfonyl)-1,3a,4,9b-tetrahydrochromeno[3,4-b]pyrrol-3(2H)-yl]propan-1-ol] | < 0.5 µM
22 | CC(C)CCCN1CCC2c3ccc(S(=O)(=O)c4ccccc4)cc3OCC21 (single isomer, unassigned) [Example 101, 3-(4-methylpentyl)-7-(phenylsulfonyl)-1,2,3,3a,4,9b-hexahydrochromeno[3,4-b]pyrrole] | > 1 µM
23 | O=S(=O)(c1ccccc1)c1ccc2c(c1)OCC1C2CCN1Cc1ccccc1 (single isomer, unassigned) [Example 102, 3-benzyl-7-(phenylsulfonyl)-1,2,3,3a,4,9b-hexahydrochromeno[3,4-b]pyrrole] | > 1 µM
24 | O=S(=O)(c1ccccc1)c1ccc2c(c1)OCC1C2CCN1CCc1ccccc1 (single isomer, unassigned) [Example 103, 3-(2-phenylethyl)-7-(phenylsulfonyl)-1,2,3,3a,4,9b-hexahydrochromeno[3,4-b]pyrrole] | > 1 µM
25 | CC(C)Oc1cc(F)cc(S(=O)(=O)c2ccc3c(c2)OCC2NCCC32)c1 (single isomer, unassigned) [Example 108, 7-{[3-fluoro-5-(propan-2-yloxy)phenyl]sulfonyl}-1,2,3,3a,4,9b-hexahydrochromeno[3,4-b]pyrrole] | < 0.5 µM

tested on: rats; assay: not given; details: rat model of tonic, persistent pain; cited from earlier work

Row | SMILES | antinociceptive effect
26 | COc1ccc(NS(=O)(=O)c2sc3ccc(Cl)cc3c2C)cc1N1CCNCC1 [SB-271046] | short-lived, antinociceptive effect

tested on: rats; assay: not given; details: compared to an untreated control group; cited from earlier work

Row | SMILES | non-REM (NREM) sleep
27 | CN1CCN(c2cccc3c(S(=O)(=O)c4ccccc4)c[nH]c23)CC1 [RO 4368554] | increase
